Holding throughout (assay): growth of human tumour cells (NCI), 48 h
Assay [1] relates to SF-539 CNS.
In assay [2] the test system is SNB-19 CNS.
Assay [3] concerns MCF7 breast.
For assay [4], the system named is RPMI-8226 leukemia.
Assay [5] deals with NCI-H460 lung.
Assay [6] relates to RXF 393 renal.
The test system of assay [7] is HS 578T breast.
Assay [8] has as its system MOLT-4 leukemia.
For assay [9], the system named is MALME-3M melanoma.
For assay [10], the system named is NCI/ADR-RES ovarian.

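Values below derive from 48-hour exposures of cells grown in 96-well plates, with endpoints linearly interpolated between the two concentrations bracketing the appropriate inhibition level. The concentration for 50% growth inhibition is given as GI50. At the TGI there is no net growth.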

Our source for the GI50 and TGI values is PubChem BioAssay (NCI).

`CC(C)(C)OC(=O)N1CCN(CCn2cc(C(F)(F)F)c3c(Cl)ncnc32)CC1`: the GI50 is 12.8 µM in assay [1]; 2 µM in assay [2]; 12.3 µM in assay [3]; 3.77 µM in assay [4]; 2.18 µM in [5]; 3.43 µM in [6]. The GI50 is 2.84 µM in assay [7], 2.62 µM in assay [8], 13.3 µM in [9] and 23 µM in assay [10]. The TGI in assay [1] worked out at 26.1 µM; in [2] it was 3.72 µM; in assay [3] it was 32.1 µM; in assay [4], 12.3 µM; in assay [5] it was 4.29 µM; in [6], 14.4 µM. The TGI turned out to be 8.29 µM in assay [7], 6.6 µM in assay [8], 27.7 µM in assay [9] and 67.7 µM in assay [10].

In the case of `Nc1c(C(=O)c2cccc(-c3ccncc3)c2)cnn1-c1ccc(F)cc1F`, the GI50 in [1] was greater than 16.4 µM; in [2], greater than 19.3 µM; in assay [3], 3.08 µM; in assay [4], 6.16 µM; in assay [5], 5.2 µM; in [6], 8.75 µM. Also, the GI50 is greater than 25 µM in assay [7], 8.39 µM in assay [8], 3.98 µM in [9] and 3.83 µM in assay [10]. For the same molecule, the TGI in [1], in assay [2], in [3], in assay [4], in [5] and in assay [6] was greater than 25 µM in each case. Moreover, the TGI is greater than 25 µM in assay [7], greater than 25 µM in assay [8], greater than 16.2 µM in assay [9] and greater than 25 µM in [10].

For the molecule `c1ccc2[nH]c(-c3ccc(-c4nccc5c4[nH]c4ccccc45)cc3)nc2c1`, the GI50 in assay [1] is 1.89 µM; in assay [2], 4.21 µM; in assay [3] it was 3.56 µM; in [4] it was 2.48 µM; in assay [5] it was 3.03 µM; in [6], 1.93 µM. For the same molecule, the GI50 was 2.23 µM in assay [7], 2.32 µM in assay [8], 1.85 µM in assay [9] and 3.5 µM in assay [10]. In addition, the TGI in assay [1] came to 3.68 µM; in assay [2], 30.4 µM; in assay [3] it was 17.2 µM; in [4] it was 5.61 µM; in [5] it was 9.79 µM; in assay [6] it was 3.53 µM. Moreover, the TGI in assay [7] was 5.93 µM; in assay [8], 6.11 µM; in [9], 3.61 µM; in assay [10], 15.2 µM.

Regarding `Cc1c(C(N)=O)sc2c1C(=O)N(Cc1ccccc1)C1=NN=C(c3ccc(Cl)cc3)CN12`, the GI50 in [1] was 3.39 µM; in assay [2], 3.71 µM; in [3] it was 3.59 µM; in [4], 4.56 µM; in assay [5], 2.13 µM; in assay [6], 2.16 µM. The GI50 in [7] is 5.88 µM; in [8], 2.36 µM; in assay [9] it was 3.29 µM; in assay [10], 1.76 µM. Besides, the TGI in assay [1] is 11 µM; in assay [2] it was 16.1 µM; in [3], 14.9 µM; in [4] it was greater than 100 µM; in [5], 7.69 µM; in assay [6], 7.71 µM. The TGI was 34.2 µM in assay [7], 40.1 µM in assay [8], 16.4 µM in assay [9] and 11.3 µM in assay [10].

`COc1ccc(C2=CC(c3ccc4c(c3)OCO4)c3c(c4ccccc4oc3=O)O2)cc1OC` (centres undefined): the TGI in [1] was greater than 22.5 µM; in assay [2] it was greater than 100 µM; in assay [3], greater than 100 µM; in assay [4] it was greater than 65.3 µM; in assay [5] it was greater than 100 µM; in [6], greater than 100 µM. For the same molecule, the TGI is greater than 25.6 µM in [7], greater than 100 µM in [8], greater than 100 µM in assay [9] and greater than 100 µM in assay [10].

Regarding `O=C1c2ccccc2C(O)(O)C1(O)C1(O)C(=O)c2ccccc2C1(O)O` (centres undefined), the TGI in [1] is greater than 100 µM; in [2], greater than 100 µM; in assay [3] it was 30.5 µM; in [4], greater than 100 µM; in assay [5], 37.3 µM; in assay [6], 81.8 µM. Moreover, the figures for the TGI in assay [7], in assay [9] and in [10] were greater than 100 µM, 54.3 µM and greater than 100 µM, respectively.

Regarding `Cc1cccc(C)c1NC(=O)C(C#N)C1=C(Cl)C(=O)c2ccccc2C1=O` (centres undefined), the TGI was 48.1 µM in assay [1]; 32.4 µM in assay [2]; 46.2 µM in assay [3]; 53.6 µM in assay [4]; 55.4 µM in assay [5]; greater than 47.8 µM in assay [6]. The TGI is 52.1 µM in [7], 26.9 µM in assay [8] and 30.4 µM in [9].

Take `CC(C)(C)n1cc(-c2ccnc(NCCCNS(=O)(=O)c3ccc(C(F)(F)F)cc3)c2)c(-c2cccc(O)c2)n1`: the GI50 is 1.65 µM in [1]; 1.98 µM in [2]; 1.78 µM in assay [3]; 1.86 µM in [5]; 1.46 µM in assay [6]; 1.98 µM in assay [7]. Moreover, the GI50 in assay [8] was 2.33 µM; in assay [9], 1.72 µM; in assay [10], 2.07 µM. Further, the TGI in assay [1] was 3.09 µM; in assay [2] it was 3.83 µM; in assay [3], 3.63 µM; in assay [5], 3.57 µM; in assay [6], 2.89 µM; in assay [7], 4.84 µM. For the same molecule, the TGI came out at 6.92 µM in [8], 3.38 µM in assay [9] and 4.3 µM in assay [10].

On to `COc1ccc2nc3cccc([N+](=O)[O-])c3c(NCCCCCC(=O)O)c2c1`, for which the GI50 is 0.404 µM in [1]; 0.178 µM in assay [2]; 0.0174 µM in [3]; 0.0131 µM in [4]; 0.0442 µM in [5]; 0.456 µM in assay [7]. The GI50 is 0.0266 µM in assay [8], 0.0437 µM in [9] and 0.313 µM in assay [10]. Moreover, the TGI in assay [1] amounted to 1.44 µM; in assay [2], 2.84 µM; in assay [3], 0.596 µM; in assay [4] it was 0.052 µM; in assay [5], 0.806 µM; in [7], 2.03 µM. The figures for the TGI in assay [8], in assay [9] and in assay [10] were 0.284 µM, 0.194 µM and 2.61 µM, respectively.
